Reference: US8247442B2, “Benzenesulfonamide compounds and their use” (Purdue Pharma L.P., priority 2006, dated 2012)

How the values were obtained:
[1] = target: T1, recombinant rat L-type calcium channel (LTCC) subunits (α1c, α2δ, and β1) (Rattus norvegicus, UniProt P22002); assay: FLIPR calcium mobilization assay for L-type calcium channel; type: cell-based; settings: calcium mobilization in vitro assay; HEK293 cells stably expressing LTCC, 90 mM KCl
T1 construct: expressed in transfected cells; pcDNA6.2DEST α1c, pcDNA3.2DEST β1, pcDNA3.1-Zeo α2δ)
Experimental: Recombinant human embryonal kidney cells (HEK293, ATCC) stably transfected with either N-type calcium channel (NTCC) subunits (α1b, α2δ, and β3) or L-type calcium channel (LTCC) subunits (α1c, α2δ, and β1) were routinely cultured in growth medium consisting of Dulbecco's Modified Eagles Medium containing 10% FBS, 100 U/mL penicillin, 100 μg/mL streptomycin, 4 mM L-glutamine, 500 μg/mL geneticin (G418), 20 μg/mL Blasticidin S (InVivogen, San Diego, Calif.) and 500 μg/mL zeocin (InVivogen).
FLIPR Calcium Mobilization Assay for L-type Calcium Channel. One day prior to performing this assay, HEK293 cells stably expressing recombinant rat L-type calcium channel (LTCC) subunits (α1c, α2δ, and β1) were trypsinized, then seeded on poly-D-lysine-coated 96-well clear-bottom black plates (Becton Dickinson, Franklin Lakes, N.J.) at 75,000 cells/well. On the day of the assay, the plates were washed with LTCC wash buffer (127 mM NaCl, 2 mM MgCl2, 700 μM NaH2PO4, 5 mM CaCl2, 5 mM NaHCO3, 8 mM HEPES, 10 mM glucose, pH 7.4), then loaded with 0.1 mL of LTCC wash buffer containing Fluo-4 (3 μM final concentration, Molecular Probes, Eugene, Oreg.). After 1 hour, the cells were washed with 0.1 mL LTCC wash buffer and resuspended in 0.05 mL LTCC assay buffer (same composition as LTCC wash buffer). Plates were then transferred to a FLIPR^96 for assay. The FLIPR measured basal Fluo-4 fluorescence for 15 seconds, then added 0.05 mL of each compound tested diluted in LTCC assay buffer at final concentrations ranging from about 846 pM to about 17 μM. Fluo-4 fluorescence was then measured for 5 minutes. 0.1 mL KCl agonist dissolved in LTCC assay buffer was then added to the cells to produce a final concentration of 90 mM KCl, and fluorescence was measured for another 45 seconds. Data were collected over the entire time course and analyzed using Excel, Graph Pad Prism, or an in-house regression analysis software.
L-type Recombinant Cell Line Development. L-type calcium channel expressing HEK-293 cells were created in two stages. Stage 1 was created as follows. The rat α1c, and β1 cDNA expression constructs (2.5 μg each) were co-transfected into human embryonic kidney (HEK-293) cells by Lipofectamine Plus reagent (Invitrogen), as per manufacturer's instructions. 24 hours later, cells were split in limiting dilution into multiple 96-well plates in selection media containing 20 μg/mL blasticidin and 500 μg/mL geneticin, and incubated for 3 weeks at 37° C., 5% CO2, 95% humidity. Plates containing ≦1 clone per well were cultured until wells positive for single clones were confluent. Individual clones were then arrayed into columns of a destination 96-well plate, and partly split into 6-well plates for culture maintenance. Array plates were washed once with LTCC wash (or assay) buffer and cells loaded for 1 hour with 0.1 mL of LTCC buffer containing Fluo-4 (3 μM final concentration, Molecular Probes). Then they were washed twice with 0.1 mL of LTCC buffer, and replaced with 0.1 mL LTCC buffer. Plates were then transferred to a FLIPR^96 for assay. The FLIPR measured basal Fluo-4 fluorescence for 315 seconds, then added 0.1 mL KCl agonist dissolved in LTCC buffer and measured fluorescence for another 45 seconds. Final KCl concentration was 90 mM. Data were collected over the entire time course and analyzed using Excel, Graph Pad Prism, or Activity Base software. The clone with the greatest signal-to-noise ratio, best stability of response with passage number, and best adhesion to PDL precoated plates (Becton Dickinson) was expanded, characterized and used for stage 2 cell line development.
Stage 2 of L-type cell line development was carried out as follows. The rat α2δ cDNA expression construct (5 μg each) was transfected into the stage 1 L-type clonal cell line by Lipofectamine Plus reagent (Invitrogen), as per manufacturer's instructions. […]

[2] = target: T2, N-type calcium channel (NTCC) (Homo sapiens, UniProt Q00975); assay: FLIPR calcium mobilization assay for N-type calcium channel; type: cell-based; settings: calcium mobilization in vitro assay; differentiated IMR32 cells, 90 mM KCl, 5 μM nitrendipine
T2 construct: endogenous in cells; host or cells: IMR32 cells (ATCC), differentiated with dibutyryl cAMP and bromodeoxyuridine
Experimental: Cell maintenance and differentiation. Unless noted otherwise, cell culture reagents were purchased from Mediatech of Hemdon, Md. IMR32 cells (American Type Culture Collection, ATCC, Manassas, Va.) were routinely cultured in growth medium consisting of minimum essential medium containing 10% fetal bovine serum (FBS, Hyclone, Logan, Utah), 100 U/mL penicillin, 100 μg/mL streptomycin, 2 mM L-glutamine, 1 mM sodium pyruvate, and 1×MEM non-essential amino acids. 80-90% confluent flasks of cells were differentiated using the following differentiation medium: Growth medium plus 1 mM dibutyryl cyclic AMP (Sigma, St. Louis, Mo.), and 2.5 μM bromodeoxyuridine (Sigma). Cells were differentiated for 8 days by replacing differentiation medium every 2-3 days.
FLIPR Calcium Mobilization Assay for N-type Calcium Channel. One day prior to performing this assay, differentiated IMR32 cells were treated with 1× CellStripper, and seeded on poly-D-lysine-coated 96-well clear-bottom black plates (Becton Dickinson, Franklin Lakes, N.J.) at 200,000 cells/well. On the day of the assay, the cell plates were washed with IMR32 buffer (127 mM NaCl, 1 mM KCl, 2 mM MgCl2, 700 μM NaH2PO4, 5 mM CaCl2, 5 mM NaHCO3, 8 mM HEPES, 10 mM glucose, pH 7.4), then pre-stimulated with KCl and loaded as follows: 0.05 mL of IMR32 buffer, 0.05 mL of each compound tested diluted in IMR32 buffer containing 20 μM nitrendipine (Sigma), and 0.1 mL KCl dissolved in IMR32 buffer, plus Fluo-4 were added (3 μM final concentration, Molecular Probes, Eugene, Oreg.). Final test compound concentrations ranged from about 846 μM to about 17 μM, final nitrendipine concentration was 5 μM, and final KCl concentration was 90 mM. After 1 hour, the cells were washed twice with 0.05 mL of each compound tested in nitrendipine-containing IMR32 buffer (no KCl or Fluo-4), and then replaced with 0.1 mL of each compound tested in nitrendipine-containing IMR32 buffer. Plates were then transferred to a Fluorimetric Imaging Plate Reader (FLIPR^96, Molecular Devices, Inc., Sunnyvale, Calif.) for assay. The FLIPR measured basal Fluo-4 fluorescence for 315 seconds (i.e., 5 minutes and 15 seconds), then added 0.1 mL KCl agonist dissolved in IMR32 buffer and measured fluorescence for another 45 seconds. Final test compound concentrations on the cells after FLIPR read ranged from about 846 μM to about 17 μM, final nitrendipine concentration was 5 μM, and final KCl concentration was 90 mM. Data were collected over the entire time course and analyzed using Excel, Graph Pad Prism (version 3.02, Graph Pad, San Diego, Calif.), or an in-house non-linear regression analysis software.

T1 sequence (P22002 whole entry): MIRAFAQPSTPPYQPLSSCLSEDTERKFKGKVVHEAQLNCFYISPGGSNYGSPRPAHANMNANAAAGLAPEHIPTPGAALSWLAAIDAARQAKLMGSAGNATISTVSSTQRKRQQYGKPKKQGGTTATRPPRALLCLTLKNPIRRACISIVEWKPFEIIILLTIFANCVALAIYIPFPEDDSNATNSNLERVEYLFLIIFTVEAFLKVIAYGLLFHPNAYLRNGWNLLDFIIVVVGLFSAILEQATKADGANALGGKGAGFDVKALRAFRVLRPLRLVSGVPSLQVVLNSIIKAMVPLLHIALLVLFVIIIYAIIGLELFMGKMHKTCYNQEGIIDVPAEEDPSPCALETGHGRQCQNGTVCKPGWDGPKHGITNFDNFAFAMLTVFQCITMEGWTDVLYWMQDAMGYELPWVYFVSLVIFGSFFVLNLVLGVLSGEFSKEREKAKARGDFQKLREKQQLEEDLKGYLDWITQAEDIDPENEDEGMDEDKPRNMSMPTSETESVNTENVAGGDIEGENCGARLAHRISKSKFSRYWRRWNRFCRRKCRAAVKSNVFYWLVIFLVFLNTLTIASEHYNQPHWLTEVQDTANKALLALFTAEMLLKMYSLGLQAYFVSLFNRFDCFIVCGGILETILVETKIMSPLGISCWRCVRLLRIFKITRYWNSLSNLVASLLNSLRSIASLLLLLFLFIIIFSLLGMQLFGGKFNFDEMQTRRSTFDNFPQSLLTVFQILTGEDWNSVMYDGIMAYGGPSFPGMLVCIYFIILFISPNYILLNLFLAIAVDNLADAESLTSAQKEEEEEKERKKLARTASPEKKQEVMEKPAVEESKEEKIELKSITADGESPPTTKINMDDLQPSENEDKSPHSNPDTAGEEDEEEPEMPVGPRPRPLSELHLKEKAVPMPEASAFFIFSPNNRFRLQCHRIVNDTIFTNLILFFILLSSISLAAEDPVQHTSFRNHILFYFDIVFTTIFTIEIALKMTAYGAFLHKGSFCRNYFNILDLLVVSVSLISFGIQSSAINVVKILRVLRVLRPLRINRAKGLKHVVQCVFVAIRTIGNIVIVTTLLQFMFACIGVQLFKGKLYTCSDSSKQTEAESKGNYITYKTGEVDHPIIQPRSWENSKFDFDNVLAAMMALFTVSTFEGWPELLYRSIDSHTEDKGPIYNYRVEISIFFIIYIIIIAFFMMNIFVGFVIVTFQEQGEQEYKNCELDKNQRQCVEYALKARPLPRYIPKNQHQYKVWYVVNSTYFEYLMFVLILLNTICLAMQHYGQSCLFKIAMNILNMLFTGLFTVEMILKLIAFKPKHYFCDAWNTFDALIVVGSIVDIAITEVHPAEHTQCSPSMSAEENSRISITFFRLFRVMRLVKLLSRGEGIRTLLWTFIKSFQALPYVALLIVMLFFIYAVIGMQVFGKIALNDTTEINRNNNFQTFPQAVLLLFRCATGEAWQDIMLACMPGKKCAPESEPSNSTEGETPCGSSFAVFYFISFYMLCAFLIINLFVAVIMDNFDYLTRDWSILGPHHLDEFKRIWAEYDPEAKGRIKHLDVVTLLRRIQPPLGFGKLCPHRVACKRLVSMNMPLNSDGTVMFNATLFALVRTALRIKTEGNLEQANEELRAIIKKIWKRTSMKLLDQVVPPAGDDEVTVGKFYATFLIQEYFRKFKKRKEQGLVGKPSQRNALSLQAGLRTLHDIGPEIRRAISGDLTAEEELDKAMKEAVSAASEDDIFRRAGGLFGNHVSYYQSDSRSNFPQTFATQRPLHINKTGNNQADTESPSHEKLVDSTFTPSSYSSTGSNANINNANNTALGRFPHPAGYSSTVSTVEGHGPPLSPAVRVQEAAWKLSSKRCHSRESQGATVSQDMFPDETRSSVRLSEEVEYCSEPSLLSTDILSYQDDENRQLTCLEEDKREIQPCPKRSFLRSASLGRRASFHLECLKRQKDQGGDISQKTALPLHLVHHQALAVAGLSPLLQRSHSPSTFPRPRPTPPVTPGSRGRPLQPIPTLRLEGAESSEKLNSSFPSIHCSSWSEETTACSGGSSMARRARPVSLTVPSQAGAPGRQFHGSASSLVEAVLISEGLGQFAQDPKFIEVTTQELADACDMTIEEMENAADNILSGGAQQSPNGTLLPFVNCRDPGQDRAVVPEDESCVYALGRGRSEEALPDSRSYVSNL
T1 sequence (P54290 25-944 partner): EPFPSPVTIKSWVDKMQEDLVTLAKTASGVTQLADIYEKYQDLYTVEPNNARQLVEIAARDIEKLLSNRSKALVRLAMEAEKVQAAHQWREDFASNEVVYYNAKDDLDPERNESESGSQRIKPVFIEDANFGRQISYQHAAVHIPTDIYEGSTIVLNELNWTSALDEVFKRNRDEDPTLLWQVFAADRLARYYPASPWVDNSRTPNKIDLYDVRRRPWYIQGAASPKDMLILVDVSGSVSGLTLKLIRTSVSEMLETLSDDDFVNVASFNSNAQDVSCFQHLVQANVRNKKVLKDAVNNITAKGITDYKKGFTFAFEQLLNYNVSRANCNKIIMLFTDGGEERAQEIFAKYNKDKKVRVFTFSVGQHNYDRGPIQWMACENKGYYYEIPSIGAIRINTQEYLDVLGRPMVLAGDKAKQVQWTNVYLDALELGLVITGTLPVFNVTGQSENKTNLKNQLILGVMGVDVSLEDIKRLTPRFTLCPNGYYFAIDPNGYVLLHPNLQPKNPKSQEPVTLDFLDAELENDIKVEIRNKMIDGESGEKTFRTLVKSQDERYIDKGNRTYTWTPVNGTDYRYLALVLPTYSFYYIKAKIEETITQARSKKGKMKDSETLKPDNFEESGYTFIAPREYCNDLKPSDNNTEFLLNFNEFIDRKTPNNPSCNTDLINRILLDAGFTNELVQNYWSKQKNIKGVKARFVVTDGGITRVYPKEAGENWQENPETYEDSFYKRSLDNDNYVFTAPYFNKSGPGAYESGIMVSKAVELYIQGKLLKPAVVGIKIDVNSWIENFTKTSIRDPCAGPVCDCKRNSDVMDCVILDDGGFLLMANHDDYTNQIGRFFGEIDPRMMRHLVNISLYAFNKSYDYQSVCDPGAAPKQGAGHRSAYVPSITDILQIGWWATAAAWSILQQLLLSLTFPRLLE
T1 sequence (P54290 945-1091 partner): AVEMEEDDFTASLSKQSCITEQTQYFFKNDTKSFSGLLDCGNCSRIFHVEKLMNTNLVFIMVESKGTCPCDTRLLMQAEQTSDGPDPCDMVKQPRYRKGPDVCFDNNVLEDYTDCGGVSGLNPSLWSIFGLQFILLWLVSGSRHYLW
T1 sequence (P54283 whole entry partner): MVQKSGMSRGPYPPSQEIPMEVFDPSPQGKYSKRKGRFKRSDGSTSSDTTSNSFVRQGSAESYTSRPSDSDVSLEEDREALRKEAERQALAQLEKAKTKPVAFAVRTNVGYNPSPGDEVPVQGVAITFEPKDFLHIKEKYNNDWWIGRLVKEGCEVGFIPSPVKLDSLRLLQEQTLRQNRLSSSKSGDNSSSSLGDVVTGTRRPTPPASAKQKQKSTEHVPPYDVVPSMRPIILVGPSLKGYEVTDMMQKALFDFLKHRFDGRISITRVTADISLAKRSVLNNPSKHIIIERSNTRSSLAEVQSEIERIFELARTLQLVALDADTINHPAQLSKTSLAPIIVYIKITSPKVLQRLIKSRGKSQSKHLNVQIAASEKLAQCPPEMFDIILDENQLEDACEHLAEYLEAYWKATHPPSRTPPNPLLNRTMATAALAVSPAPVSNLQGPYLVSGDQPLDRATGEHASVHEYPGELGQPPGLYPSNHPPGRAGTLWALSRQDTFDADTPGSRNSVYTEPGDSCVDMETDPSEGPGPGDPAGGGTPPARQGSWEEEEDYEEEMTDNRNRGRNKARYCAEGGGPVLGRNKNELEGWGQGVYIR

Row | Molecule | IC50 [1] [nM] | IC50 [2] [nM]
1 | CC(C)CNCC(=O)N1CCCC(N(C2CC2)S(=O)(=O)c2cccc(C(F)(F)F)c2)C1 (stereo not drawn) [N-Cyclopropyl-N-[1-(2-isobutylaminoacetyl)piperidin-3-yl]-3-trifluoromethylbenzenesulfonamide] | 5750 | 690
2 | COCCNCCC(=O)N1CCCC(N(C2CC2)S(=O)(=O)c2cccc(C(F)(F)F)c2)C1 (stereo not drawn) [N-Cyclopropyl-N-{1-[3-(2-methoxyethylamino)propionyl]piperidin-3-yl}-3-trifluoromethylbenzenesulfonamide] | 10000 to 20000 | 810
3 | CC(C)C[C@H](N)C(=O)N1CCCC(N(C2CC2)S(=O)(=O)c2cccc(C(F)(F)F)c2)C1 (stereo partly drawn) [(2S)N-[1-(2-Amino-4-methylpentanoyl)piperidin-3-yl]-N-cyclopropyl-3-trifluoromethylbenzenesulfonamide] | 6580 | 1100
4 | CC(C)C[C@H](N)CC(=O)N1CCCC(N(C2CC2)S(=O)(=O)c2cccc(C(F)(F)F)c2)C1 (stereo partly drawn) [(2S)N-[1-(3-Amino-5-methylhexanoyl)piperidin-3-yl]-N-cyclopropyl-3-trifluoromethylbenzenesulfonamide] | 500 | 280
5 | (2S)N-Cyclopropyl-N-[1-(2-methylcarbonylpropylamino-4-methylpentanoyl)piperidin-3-yl]-3-trifluoromethylbenzenesulfonamide |  | 510
6 | O=C(CN1CCC(NS(=O)(=O)c2cccc(C(F)(F)F)c2)C1)Nc1ccc(F)cc1 (stereo not drawn) [N-(4-Fluorophenyl)-2-[3-(3-trifluoromethylbenzenesulfonylamino)-pyrrolidin-1-yl]acetamide] |  | 1680
7 | CN[C@@H](CC(C)C)C(=O)N1CCCC(N(C2CC2)S(=O)(=O)c2cccc(C(F)(F)F)c2)C1 (stereo partly drawn) [(2S)N-Cyclopropyl-N-[1-(4-methyl-2-methylaminopentanoyl)-piperidin-3-yl]-3-trifluoromethylbenzenesulfonamide] | 6580 | 540
8 | CCN[C@@H](CC(C)C)C(=O)N1CCCC(N(C2CC2)S(=O)(=O)c2cccc(C(F)(F)F)c2)C1 (stereo partly drawn) [(2S)N-Cyclopropyl-N-[1-(2-ethylamino-4-methylpentanoyl)piperidin-3-yl]-3-trifluoromethylbenzenesulfonamide] | 5070 | 130
9 | CC(C)C[C@H](NC(C)C)C(=O)N1CCCC(N(C2CC2)S(=O)(=O)c2cccc(C(F)(F)F)c2)C1 (stereo partly drawn) [(2S)N-Cyclopropyl-N-[1-(2-isopropylamino-4-methylpentanoyl)piperidin-3-yl]-3-trifluoromethylbenzenesulfonamide] |  | 210
10 | CC(C)CCN[C@@H](CC(C)C)C(=O)N1CCCC(N(C2CC2)S(=O)(=O)c2cccc(C(F)(F)F)c2)C1 (stereo partly drawn) [(2S)N-Cyclopropyl-N-{1-[2-(3-methylbutyl)amino-4-methylpentanoyl]piperidin-3-yl}-3-trifluoromethylbenzenesulfonamide] |  | 360
11 | CC(C)NCCC(=O)N1CCCC(N(C2CC2)S(=O)(=O)c2cccc(C(F)(F)F)c2)C1 (stereo not drawn) [N-Cyclopropyl-N-[1-(3-isopropylaminopropionyl)piperidin-3-yl]-3-trifluoromethylbenzenesulfonamide] | 8770 | 630

The remaining lines, values ahead:

Row | IC50 [1] [nM] | IC50 [2] [nM] | Molecule
12 | > 20000 | 1200 | O=C(CNCc1cccnc1)N1CCCC(N(C2CC2)S(=O)(=O)c2cccc(C(F)(F)F)c2)C1 (stereo not drawn) [N-Cyclopropyl-N-(1-{2-[(pyridin-3-ylmethyl)amino]acetyl}-piperidin-3-yl)-3-trifluoromethylbenzenesulfonamide]
13 | 4650 | 420 | COc1ccc(CNCC(=O)N2CCCC(N(C3CC3)S(=O)(=O)c3cccc(C(F)(F)F)c3)C2)cc1 (stereo not drawn) [N-Cyclopropyl-N-{1-[2-(4-methoxybenzylamino)acetyl]-piperidin-3-yl}-3-trifluoromethylbenzenesulfonamide]
14 |  | 2830 | O=C(CCNCCO)N1CCCC(N(C2CC2)S(=O)(=O)c2cccc(C(F)(F)F)c2)C1 (stereo not drawn) [N-Cyclopropyl-N-{1-[3-(2-hydroxyethylamino)propionyl]piperidin-3-yl}-3-trifluoromethylbenzenesulfonamide]
15 | 9820 | 430 | CC(C)CNC(=O)CN1CCCC(N(C2CC2)S(=O)(=O)c2cccc(C(F)(F)F)c2)C1 (stereo not drawn) [2-{3-[Cyclopropyl-(3-trifluoromethylbenzenesulfonyl)-amino]-piperidin-1-yl}-N-isobutyl-acetamide]
16 | 6180 | 360 | O=C(CN1CCCC(N(C2CC2)S(=O)(=O)c2cccc(C(F)(F)F)c2)C1)Nc1ccc(F)cc1 (stereo not drawn) [2-{3-[Cyclopropyl-(3-trifluoromethylbenzenesulfonyl)amino]-piperidin-1-yl}-N-(4-fluorophenyl)-acetamide]
17 | 5630 | 820 | CC(C)CNCCC(=O)N1CCCC(N(C2CC2)S(=O)(=O)c2cccc(C(F)(F)F)c2)C1 (stereo not drawn) [N-Cyclopropyl-N-[1-(3-isobutylaminopropionyl)piperidin-3-yl]-3-trifluoromethylbenzenesulfonamide]
18 |  | 2220 | O=S(=O)(c1cccc(C(F)(F)F)c1)N(C1CC1)C1CCCN(CCCN(c2ccc(F)cc2)c2ccc(F)cc2)C1 (stereo not drawn) [N-Cyclopropyl-N-(1-{3-[bis-(4-fluorophenyl)amino]propyl}piperidin-3-yl)-3-trifluoromethylbenzenesulfonamide]
